Calls of active or inactive are those of the source.
Experiments:
Streptokinase A = target: T1, Streptokinase A (Streptococcus pyogenes serotype M1, UniProt P10520); test: S. pyogenes streptokinase expression inhibitors, potency, dose response, plasminogen activation absorbance, OD405 (AID 1914); type: functional, Streptococcus pyogenes M1 GAS;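 note: secreted streptokinase activity via plasminogen activation per viability signal from cell pellet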
T1 sequence (P10520 whole entry): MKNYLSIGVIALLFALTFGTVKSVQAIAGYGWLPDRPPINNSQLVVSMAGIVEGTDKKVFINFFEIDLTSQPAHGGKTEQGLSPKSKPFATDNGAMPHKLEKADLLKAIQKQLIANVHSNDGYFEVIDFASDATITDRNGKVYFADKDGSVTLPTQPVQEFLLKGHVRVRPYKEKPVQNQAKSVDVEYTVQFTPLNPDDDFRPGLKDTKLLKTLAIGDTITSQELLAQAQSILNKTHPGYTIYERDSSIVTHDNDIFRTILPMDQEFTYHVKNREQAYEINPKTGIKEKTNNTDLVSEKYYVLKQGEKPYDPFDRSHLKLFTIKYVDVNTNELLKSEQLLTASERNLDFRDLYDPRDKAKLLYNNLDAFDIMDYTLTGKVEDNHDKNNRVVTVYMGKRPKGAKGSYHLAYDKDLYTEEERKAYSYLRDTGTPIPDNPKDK

[1] = Luminescent dose response cell-based high throughput screening assay for inhibitors of the Janus kinase 2 mutant JAK2V617F. [Related pubchem assays: 1446 (Primary screen.), 1521 (Confirmation assay.), 1486 (Counter screen.)]; type: functional
Streptococcus = test: Group A Streptococcus viability loss, dose response, counter-screen for streptokinase expression inhibitor project, luminescence, BacTiterGlo (AID 1915); type: functional, organism-based;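 note: potency for reduction of bacterial viability or growth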
[2] = test system: Streptococcus sp. 'group A'; test: growth inhibition of control SK(-) GAS strain, dose response, counter-screen for streptokinase expression inhibitor project, luminescence, kanamycin, BacTiterGlo, confirmation (AID 1900); type: functional, organism-based
NADPH oxidase 1 = target: T2, NADPH oxidase 1 (Homo sapiens, UniProt Q9Y5S8); test: Late-stage luminescence-based cell-based dose response assay to identify inhibitors of NADPH oxidase 1 (NOX1): Synthesized analogs 2.; type: functional
T2 sequence (Q9Y5S8 whole entry): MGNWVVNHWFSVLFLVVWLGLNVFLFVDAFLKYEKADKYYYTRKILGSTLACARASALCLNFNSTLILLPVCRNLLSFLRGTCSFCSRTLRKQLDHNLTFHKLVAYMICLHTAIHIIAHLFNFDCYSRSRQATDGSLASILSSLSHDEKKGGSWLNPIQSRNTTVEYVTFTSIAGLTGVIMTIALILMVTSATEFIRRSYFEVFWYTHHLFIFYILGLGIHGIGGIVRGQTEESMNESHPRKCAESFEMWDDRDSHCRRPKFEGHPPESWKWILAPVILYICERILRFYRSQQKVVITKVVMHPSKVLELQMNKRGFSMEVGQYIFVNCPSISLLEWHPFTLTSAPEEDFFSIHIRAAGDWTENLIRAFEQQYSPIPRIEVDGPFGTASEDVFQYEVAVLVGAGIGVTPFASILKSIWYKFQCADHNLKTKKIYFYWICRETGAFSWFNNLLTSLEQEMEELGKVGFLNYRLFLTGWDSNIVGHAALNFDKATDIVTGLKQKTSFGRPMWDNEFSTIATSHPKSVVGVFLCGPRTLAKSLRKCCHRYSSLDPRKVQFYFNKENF

Large T antigen = Large T antigen (Simian virus 40, UniProt P03070); type: functional, Betapolyomavirus macacae;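 note: Confirmatory-stage PubChem screen for compounds that inhibit SV40 T antigen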
Sequence of Large T antigen (P03070 whole entry): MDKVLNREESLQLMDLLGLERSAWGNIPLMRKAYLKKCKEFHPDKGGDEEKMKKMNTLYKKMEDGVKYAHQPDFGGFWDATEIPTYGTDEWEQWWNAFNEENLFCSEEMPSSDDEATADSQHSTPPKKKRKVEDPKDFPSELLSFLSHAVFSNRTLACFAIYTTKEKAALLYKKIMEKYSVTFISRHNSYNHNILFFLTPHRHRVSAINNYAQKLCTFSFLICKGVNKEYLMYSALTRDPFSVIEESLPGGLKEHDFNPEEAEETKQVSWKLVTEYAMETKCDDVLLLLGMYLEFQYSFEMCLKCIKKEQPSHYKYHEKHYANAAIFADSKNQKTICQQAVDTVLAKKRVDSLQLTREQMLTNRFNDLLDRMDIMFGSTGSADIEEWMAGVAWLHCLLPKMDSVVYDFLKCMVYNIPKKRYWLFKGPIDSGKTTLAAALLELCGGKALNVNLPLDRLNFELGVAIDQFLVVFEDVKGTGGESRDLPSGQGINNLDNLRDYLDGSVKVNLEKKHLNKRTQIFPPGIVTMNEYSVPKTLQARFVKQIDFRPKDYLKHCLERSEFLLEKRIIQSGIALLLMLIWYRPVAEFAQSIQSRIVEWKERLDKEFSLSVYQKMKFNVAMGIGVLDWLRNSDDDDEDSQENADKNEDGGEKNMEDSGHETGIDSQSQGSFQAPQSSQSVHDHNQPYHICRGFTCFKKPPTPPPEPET

[3] = target: E3 ubiquitin-protein ligase Mdm2 (Homo sapiens, UniProt Q00987); test: enhancers of MDM2-luciferase reporter signal, concentration-effect titration, project on inhibitors of MDM2 ubiquitin ligase, cellular assay, luminescent readout, 384-well plate format (AID 1394); type: functional;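 note: MDM2 E3 inhibitors raise luminescence so EC50 is for signal enhancement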
Sequence of E3 ubiquitin-protein ligase Mdm2 (Q00987 whole entry): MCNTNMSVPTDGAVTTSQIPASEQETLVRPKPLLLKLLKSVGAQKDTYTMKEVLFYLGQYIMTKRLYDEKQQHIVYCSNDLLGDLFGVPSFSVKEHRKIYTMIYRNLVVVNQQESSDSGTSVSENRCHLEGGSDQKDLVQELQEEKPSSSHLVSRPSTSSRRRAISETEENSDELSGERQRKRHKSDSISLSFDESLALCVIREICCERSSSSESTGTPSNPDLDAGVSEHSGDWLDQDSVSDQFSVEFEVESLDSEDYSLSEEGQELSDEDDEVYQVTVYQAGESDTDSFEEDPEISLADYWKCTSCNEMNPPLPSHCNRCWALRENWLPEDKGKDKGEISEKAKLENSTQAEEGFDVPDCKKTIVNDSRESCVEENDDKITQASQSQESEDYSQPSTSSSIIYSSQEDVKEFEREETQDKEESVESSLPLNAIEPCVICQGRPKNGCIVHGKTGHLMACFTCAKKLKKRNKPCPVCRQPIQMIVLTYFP

[4] = target: G-protein coupled receptor 55 (Homo sapiens, UniProt Q9Y2T6); test: GPR55 antagonists blocking LPI-driven arrestin recruitment, primary screen, imaging, U2OS, beta-arrestin-GFP, LPI agonist (AID 2013); type: functional;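 note: antagonist potency measured as reduced agonist-driven arrestin aggregation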
Sequence of G-protein coupled receptor 55 (Q9Y2T6 whole entry): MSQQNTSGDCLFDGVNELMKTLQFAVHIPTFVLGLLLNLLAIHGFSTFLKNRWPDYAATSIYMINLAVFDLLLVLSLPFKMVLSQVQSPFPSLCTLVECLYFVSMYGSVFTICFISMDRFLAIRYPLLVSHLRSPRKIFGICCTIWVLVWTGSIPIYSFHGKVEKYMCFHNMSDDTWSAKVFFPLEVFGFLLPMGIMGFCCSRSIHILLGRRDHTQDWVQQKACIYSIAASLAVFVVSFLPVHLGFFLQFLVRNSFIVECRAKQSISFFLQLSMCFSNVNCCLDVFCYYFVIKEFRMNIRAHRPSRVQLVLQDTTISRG

[5] = target: T3, Small ubiquitin-related modifier 1 (Homo sapiens, UniProt P63165); test: inhibitors of SUMO1 partner interactions, dose response, biochemical, FRET (AID 624383); type: functional; conditions: read-out: IC50_Mean
T3 sequence (P63165 whole entry): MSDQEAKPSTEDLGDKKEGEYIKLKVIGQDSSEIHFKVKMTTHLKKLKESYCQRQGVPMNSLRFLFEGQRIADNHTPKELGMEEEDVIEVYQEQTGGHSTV

[6] = target: Eukaryotic translation initiation factor 4E (Mus musculus, UniProt P63073); test: eIF4E–eIF4G protein interaction inhibitors, dose response, biochemical, TR-FRET (AID 855); type: functional;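 note: potency for disrupting eIF4E binding to eIF4GI seen as loss of FRET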
Sequence of Eukaryotic translation initiation factor 4E (P63073 whole entry): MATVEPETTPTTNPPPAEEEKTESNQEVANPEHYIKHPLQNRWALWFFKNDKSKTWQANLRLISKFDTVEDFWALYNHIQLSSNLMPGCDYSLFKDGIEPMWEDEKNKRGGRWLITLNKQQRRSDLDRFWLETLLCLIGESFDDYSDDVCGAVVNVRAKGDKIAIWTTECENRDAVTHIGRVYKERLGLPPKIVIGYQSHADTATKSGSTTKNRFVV

[7] = target: T3, Small ubiquitin-related modifier 1; test: inhibitors of SUMO1 peptide binding, dose response, biochemical, fluorescence polarization, uHTS hits (AID 624382); type: functional; conditions: read-out: IC50_Mean
[8] = target: T4, Small ubiquitin-related modifier 2 (Homo sapiens, UniProt P61956); test: SUMO2–SIM peptide binding inhibitors, dose response, selectivity assay for SUMO1 interaction inhibitor project, biochemical, fluorescence polarization, uHTS hits (AID 624385); type: functional; conditions: read-out: IC50_Mean
T4 sequence (P61956 whole entry): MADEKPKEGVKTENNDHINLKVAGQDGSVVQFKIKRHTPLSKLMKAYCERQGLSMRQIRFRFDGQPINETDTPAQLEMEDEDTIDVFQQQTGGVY

[9] = target: Acetyl-CoA acetyltransferase/HMG-CoA reductase (Enterococcus faecalis, UniProt Q9FD70); test: inhibitors of E. faecalis class II HMGR, confirmation, biochemical, Enterococcus faecalis (AID 1233); type: functional
[10] = target: T4, Small ubiquitin-related modifier 2; test: inhibitors of SUMO2 protein-protein interaction, dose response, selectivity assay for SUMO1 interaction inhibitor project, biochemical, FRET, human SUMO2, uHTS hits (AID 624384); type: functional; conditions: read-out: IC50_Mean
Aspartyl aminopeptidase = Aspartyl aminopeptidase (Plasmodium falciparum 3D7, UniProt Q8I2J3); test: Counterscreen for inhibitors of M1 and M17 aminopeptidases: QFRET-based biochemical high throughput dose response assay for inhibitors of the Plasmodium falciparum M18 Aspartyl Aminopeptidase (PFM18AAP). [Related PubChem assays: 1619 (Screening assay (M17LAP inhibitors).), 1445 (Screening assay (M1AAP inhibitors).)]
Sequence of Aspartyl aminopeptidase (Q8I2J3 whole entry): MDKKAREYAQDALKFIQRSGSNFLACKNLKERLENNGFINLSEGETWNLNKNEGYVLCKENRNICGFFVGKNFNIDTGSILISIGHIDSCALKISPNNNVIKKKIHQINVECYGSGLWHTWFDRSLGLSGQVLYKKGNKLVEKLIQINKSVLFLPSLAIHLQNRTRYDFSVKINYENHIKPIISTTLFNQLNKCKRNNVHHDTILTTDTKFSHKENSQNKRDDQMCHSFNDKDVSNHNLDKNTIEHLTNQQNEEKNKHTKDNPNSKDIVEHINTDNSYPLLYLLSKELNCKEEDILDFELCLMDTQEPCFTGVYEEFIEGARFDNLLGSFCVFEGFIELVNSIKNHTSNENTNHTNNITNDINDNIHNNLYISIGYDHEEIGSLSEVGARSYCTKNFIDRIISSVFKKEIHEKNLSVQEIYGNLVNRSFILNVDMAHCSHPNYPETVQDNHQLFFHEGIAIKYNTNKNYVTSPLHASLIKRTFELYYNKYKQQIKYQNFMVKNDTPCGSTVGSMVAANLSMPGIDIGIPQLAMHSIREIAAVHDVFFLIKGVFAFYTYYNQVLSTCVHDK

Leucine aminopeptidase = target: T5, Leucine aminopeptidase (Plasmodium falciparum 3D7, UniProt Q8IL11); test: P. falciparum M17LAP inhibitors, primary screen, biochemical, fluorogenic H-Leu-NHMec substrate, 1536-well (AID 1619); type: functional
T5 sequence (Q8IL11 whole entry): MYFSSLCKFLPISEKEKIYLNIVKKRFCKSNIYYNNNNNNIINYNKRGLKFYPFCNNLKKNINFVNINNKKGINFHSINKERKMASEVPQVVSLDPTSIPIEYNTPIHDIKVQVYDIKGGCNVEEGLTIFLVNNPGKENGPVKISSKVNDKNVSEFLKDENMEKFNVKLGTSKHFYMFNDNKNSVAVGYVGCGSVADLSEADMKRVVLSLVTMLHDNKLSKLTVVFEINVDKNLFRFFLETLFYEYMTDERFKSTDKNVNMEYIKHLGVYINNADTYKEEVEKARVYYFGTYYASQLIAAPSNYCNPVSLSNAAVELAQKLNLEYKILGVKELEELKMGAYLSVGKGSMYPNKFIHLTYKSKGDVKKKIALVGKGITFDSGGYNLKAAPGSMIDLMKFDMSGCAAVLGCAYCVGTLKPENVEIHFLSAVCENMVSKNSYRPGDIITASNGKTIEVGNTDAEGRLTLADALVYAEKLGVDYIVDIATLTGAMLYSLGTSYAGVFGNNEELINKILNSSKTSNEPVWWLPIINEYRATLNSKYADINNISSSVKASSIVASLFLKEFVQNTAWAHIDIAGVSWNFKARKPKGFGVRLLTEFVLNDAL

Procathepsin L = Procathepsin L (Homo sapiens, UniProt P07711); test: cathepsin L inhibitors, dose response, counter-screen for M1/M17 aminopeptidase inhibitor project, biochemical, QFRET, 1536-well (AID 2214)
Sequence of Procathepsin L (P07711 whole entry): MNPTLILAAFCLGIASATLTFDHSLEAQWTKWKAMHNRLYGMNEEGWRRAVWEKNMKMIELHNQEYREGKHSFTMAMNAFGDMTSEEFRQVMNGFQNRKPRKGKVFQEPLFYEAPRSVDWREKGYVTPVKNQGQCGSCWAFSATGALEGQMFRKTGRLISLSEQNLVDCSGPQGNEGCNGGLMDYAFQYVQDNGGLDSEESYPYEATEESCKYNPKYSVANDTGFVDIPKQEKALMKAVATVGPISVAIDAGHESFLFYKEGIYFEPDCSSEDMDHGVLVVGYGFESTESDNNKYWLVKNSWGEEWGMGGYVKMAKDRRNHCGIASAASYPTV

## O=C(Oc1cccc2c(O)cccc12)c1ccccc1
Streptokinase A
  EC50: 63.7 µM (active)
[1]
  IC50: 7.47 µM (active)
Streptococcus
  EC50: > 150 µM (not active)
[2]
  EC50: 29 µM (active)

## O=C(c1ccccc1)c1ccccc1N1c2ccccc2Sc2ccccc21
NADPH oxidase 1
  IC50: > 50 µM (not active)

## CC1=NN(c2cccc(C(=O)O)c2)C(=O)/C1=C\C=C/c1ccccc1
Large T antigen
  IC50: 20.4 µM (active)
[3]
  EC50: 4.82 µM (active)
[4]
  IC50: 3.3 µM (active)

## O=C(CSc1nc(-c2ccccc2)nc2c1Cc1ccccc1O2)Nc1ccc(C(=O)O)cc1
[5]
  IC50: 5.3 µM (active)
[6]
  IC50: 17.1 µM (active)
[7]
  IC50: 23.1 µM (inactive)
[8]
  IC50: 35.1 µM (inactive)
[9]
  IC50: 164 µM (active)
[10]
  IC50: 6.38 µM (active)

## O=C(O)C1CC=CCC1C(=O)Nc1cccc(Cl)c1 (configuration not stated)
Aspartyl aminopeptidase
  IC50: > 73.5 µM (not active)
Leucine aminopeptidase
  IC50: 6.23 µM (active)
Procathepsin L
  IC50: > 59.6 µM (not active)

From ChEMBL document CHEMBL1201862, “PubChem BioAssay data set” (2004)
